Results reported in patent US20240287138A1, “CYCLIC PEPTIDES FOR INHIBITING TNF RECEPTOR 1 ACTIVITY” (Merck Sharp & Dohme LLC, priority 2023, published 2024).
Numbered stars: 1 amine (or outer) side, 2 acyl side, 3 side chain; on linkers, the order of the positions; unused ones are H or OH. Bridge positions count the residues as written; N and C are the ends. Square brackets hold non-standard residues; d marks the D form. Peptide text beside a SMILES is read from it. Trp(βS-Me,7-OMe) = COc1cccc2c([C@H](C)[C@H](N)C(=O)O)c[nH]c12; Trp(1-CH2COOH) = N[C@@H](Cc1cn(CC(=O)O)c2ccccc12)C(=O)O; X44 = NC(=O)c1ccc([C@@H](O)[C@H](N[*:1])C(=O)[*:2])cc1; X28 = NC(=O)c1ccc([C@H](O)[C@H](N[*:1])C(=O)[*:2])cc1; Phe(4-SO2NH2) = N[C@@H](Cc1ccc(S(N)(=O)=O)cc1)C(=O)O; Phe(4-SO3H) = N[C@@H](Cc1ccc(S(=O)(=O)O)cc1)C(=O)O; Ala(indazol-1-yl) = N[C@@H](Cn1ncc2ccccc21)C(=O)O; Trp(7-CN) = N#Cc1cccc2c(C[C@H](N)C(=O)O)c[nH]c12; Trp(7-Cl) = N[C@@H](Cc1c[nH]c2c(Cl)cccc12)C(=O)O; Phe(4-CONH2) = NC(=O)c1ccc(C[C@H](N)C(=O)O)cc1; Phe(4-COOH) = N[C@@H](Cc1ccc(C(=O)O)cc1)C(=O)O; 4Pal(3S-Me) = C[C@@H](c1ccncc1)[C@H](N)C(=O)O; Trp(7-aza) = N[C@@H](Cc1c[nH]c2ncccc12)C(=O)O; X48 = O=C([C@H](CC12CC(O)(C1)C2)N[*:1])[*:2]; Pip(5R-OH) = O=C(O)[C@@H]1CC[C@@H](O)CN1; X1 = O=C([C@@H]1CC[C@H](N[*:1])C1)[*:2]; Pip(4-aza) = O=C(O)[C@@H]1CNCCN1; 4Pal = N[C@@H](Cc1ccncc1)C(=O)O; NMeE = CN[C@@H](CCC(=O)O)C(=O)O; dHyp = O=C(O)[C@H]1C[C@H](O)CN1; Ahp(2) = CCCCC[C@H](N)C(=O)O; hSer = N[C@@H](CCO)C(=O)O; αMeS = C[C@](N)(CO)C(=O)O; Nle = CCCC[C@H](N)C(=O)O; Sar = CNCC(=O)O

Experiments:
[1] = target: T1, human soluble TNFR1 (sTNFR1) (Homo sapiens, UniProt P19438); experiment: Human sTNFR1-peptide displacement assay (LanthaScreen Eu TR-FRET binding assay)
T1 construct: made in house; host or cells: Sf21 (baculovirus)
T1 sequence (P19438 with tags, fused parts or gaps): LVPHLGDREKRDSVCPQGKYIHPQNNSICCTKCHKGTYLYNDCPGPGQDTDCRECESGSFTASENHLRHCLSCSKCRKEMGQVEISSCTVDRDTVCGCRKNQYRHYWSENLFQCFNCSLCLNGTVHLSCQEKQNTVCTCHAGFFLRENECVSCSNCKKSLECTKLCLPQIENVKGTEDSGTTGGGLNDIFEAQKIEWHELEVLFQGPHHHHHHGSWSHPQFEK
Method in brief: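 Readout is the 665/615 nm TR-FRET ratio (Eu anti-His donor, streptavidin-Alexa647 acceptor), normalized to DMSO and saturating displacer, fit by Morrison-based five-parameter logistic for Kd^app. His-tagged sTNFR1 (1-211) prebound to 100 nM biotinylated peptide SEQ ID NO.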

[2] = target: T2, TNFα-induced NF-κB signal transduction pathway (TNFR1 signaling) in THP-1 cells (Homo sapiens, UniProt P19438); experiment: THP-1 Lucia NF-κB reporter cell assay, inhibition of TNFα-induced NF-κB signaling; format: cell-based; details: THP-1 NF-κB Lucia reporter cells, 10 ng/mL TNFα, 16-18 h, secreted luciferase; read-out: THP-1 IC50
T2 sequence (P19438 30-455): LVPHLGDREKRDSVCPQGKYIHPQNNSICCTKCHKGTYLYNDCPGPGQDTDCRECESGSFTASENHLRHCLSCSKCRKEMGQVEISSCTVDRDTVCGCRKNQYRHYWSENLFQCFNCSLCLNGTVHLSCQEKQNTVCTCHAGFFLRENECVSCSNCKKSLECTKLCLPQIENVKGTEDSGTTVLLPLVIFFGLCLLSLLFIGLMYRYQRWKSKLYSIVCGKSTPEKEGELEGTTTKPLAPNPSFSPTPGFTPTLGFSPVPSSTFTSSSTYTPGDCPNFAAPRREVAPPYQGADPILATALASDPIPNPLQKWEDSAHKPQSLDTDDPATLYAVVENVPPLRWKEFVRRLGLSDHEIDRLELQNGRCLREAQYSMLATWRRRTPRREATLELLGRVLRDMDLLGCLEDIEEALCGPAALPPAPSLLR
Method in brief: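 THP-1 Lucia NF-κB cells, 20k/well, no selection antibiotics; peptide pre-inc 1 h 37 °C; + recombinant human TNFα 10 ng/mL final; o.n.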

Row | Compound | Kd [1] [nM] | IC50 [2] [nM]
1 | CCCC[C@@H]1NC(=O)[C@@H]2CC[C@@H](C2)NC(=O)[C@H]([C@@H](C)c2c[nH]c3c(OC)cccc23)NC(=O)CN(C)C(=O)[C@H](Cc2ccc(O)cc2)NC(=O)[C@H](Cc2ccc(S(=O)(=O)O)cc2)NC(=O)[C@](C)(CO)NC(=O)[C@H](Cc2c[nH]c3c(Cl)cccc23)NC(=O)[C@H](Cc2ccncc2)NC(=O)[C@H](CC(N)=O)NC(=O)[C@H](CCC(=O)O)N(C)C(=O)[C@H](Cc2c[nH]c3ccccc23)NC(=O)[C@@H]2CNCCN2C(=O)[C@H](Cc2ccncc2)NC1=O [SEQ ID NO. 199] (cyclo([4Pal][Trp(7-Cl)][αMeS][Phe(4-SO3H)]Y[Sar][Trp(βS-Me,7-OMe)][X1][Nle][4Pal][Pip(4-aza)]W[NMeE]N)) | 0.32 | 1
2 | CCCCC[C@@H]1NC(=O)[C@@H]2CC[C@@H](C2)NC(=O)[C@H]([C@@H](C)c2c[nH]c3c(OC)cccc23)NC(=O)CN(C)C(=O)[C@H](Cc2ccc(C(N)=O)cc2)NC(=O)[C@H](Cc2ccc(C(N)=O)cc2)NC(=O)[C@](C)(CO)NC(=O)[C@H](Cc2c[nH]c3c(C#N)cccc23)NC(=O)[C@H](Cc2ccc(C(=O)O)cc2)NC(=O)[C@H](CC(N)=O)NC(=O)[C@H]2C[C@H](O)CN2C(=O)[C@H](Cc2c[nH]c3ccccc23)NC(=O)[C@H](CCOC)NC(=O)[C@H]([C@@H](C)c2ccncc2)NC1=O [SEQ ID NO. 154] (cyclo([Ahp(2)][4Pal(3S-Me)][hSer](Me)W[dHyp]N[Phe(4-COOH)][Trp(7-CN)][αMeS][Phe(4-CONH2)][Phe(4-CONH2)][Sar][Trp(βS-Me,7-OMe)][X1])) | 0.17 | 1.2
3 | CCCC[C@@H]1NC(=O)CSC[C@@H](C(N)=O)NC(=O)[C@H]([C@@H](C)c2c[nH]c3c(OC)cccc23)NC(=O)CN(C)C(=O)[C@H](Cc2ccc(O)cc2)NC(=O)[C@H](Cc2ccc(C(=O)O)cc2)NC(=O)[C@](C)(CO)NC(=O)[C@H](Cc2c[nH]c3c(Cl)cccc23)NC(=O)[C@H](Cc2ccncc2)NC(=O)[C@H](CC(N)=O)NC(=O)[C@H](CCC(=O)O)N(C)C(=O)[C@H](Cn2ncc3ccccc32)NC(=O)[C@H]([C@@H](C)O)NC(=O)[C@H](CC23CC(O)(C2)C3)NC1=O [SEQ ID NO. 152] ({CH2CO}-[Nle][X48]T[Ala(indazol-1-yl)][NMeE]N[4Pal][Trp(7-Cl)][αMeS][Phe(4-COOH)]Y[Sar][Trp(βS-Me,7-OMe)]C-NH2; thioether N-14) | 1.19 | 5.3
4 | CCCC[C@@H]1NC(=O)[C@@H]2CC[C@@H](C2)NC(=O)[C@H]([C@@H](C)c2c[nH]c3c(OC)cccc23)NC(=O)CN(C)C(=O)[C@H](Cc2ccc(C(=O)O)cc2)NC(=O)[C@H]([C@H](O)c2ccc(C(N)=O)cc2)NC(=O)[C@](C)(CO)NC(=O)[C@H](Cc2c[nH]c3c(C#N)cccc23)NC(=O)[C@H](Cc2ccc(S(N)(=O)=O)cc2)NC(=O)[C@H](CC(N)=O)NC(=O)[C@H]2C[C@H](O)CN2C(=O)[C@H](Cc2cn(CC(=O)O)c3ccccc23)NC(=O)[C@@H]2CC[C@@H](O)CN2C(=O)[C@H](Cc2ccncc2)NC1=O [SEQ ID NO. 119] (cyclo([4Pal][Pip(5R-OH)][Trp(1-CH2COOH)][dHyp]N[Phe(4-SO2NH2)][Trp(7-CN)][αMeS][X44][Phe(4-COOH)][Sar][Trp(βS-Me,7-OMe)][X1][Nle])) | 0.12 | 0.7
5 | CCCC[C@@H]1NC(=O)[C@@H]2CC[C@@H](C2)NC(=O)[C@H]([C@@H](C)c2c[nH]c3c(OC)cccc23)NC(=O)CN(C)C(=O)[C@H]([C@H](O)c2ccc(C(N)=O)cc2)NC(=O)[C@H]([C@@H](O)c2ccc(C(N)=O)cc2)NC(=O)[C@](C)(CO)NC(=O)[C@H](Cc2c[nH]c3c(C#N)cccc23)NC(=O)[C@H](Cc2ccc(C(=O)O)cc2)NC(=O)[C@H](CC(N)=O)NC(=O)[C@H]2C[C@H](O)CN2C(=O)[C@H](Cc2c[nH]c3ncccc23)NC(=O)[C@@H]2CC[C@@H](O)CN2C(=O)[C@H](Cc2ccncc2)NC1=O [SEQ ID NO. 90] (cyclo([4Pal][Pip(5R-OH)][Trp(7-aza)][dHyp]N[Phe(4-COOH)][Trp(7-CN)][αMeS][X28][X44][Sar][Trp(βS-Me,7-OMe)][X1][Nle])) | 0.12 | 1.2
